Laboratory results as given in article PMC8229862, “Elaiophylin Is a Potent Hsp90/ Cdc37 Protein Interface Inhibitor with K-Ras Nanocluster Selectivity” (Biomolecules, 2021).

How the values were obtained:
[1] = target: T1, Hsp90 (N-terminal domain) (Homo sapiens, UniProt P07900); assay: lysate-based split Renilla luciferase Hsp90/Cdc37 interaction assay; supported by co-immunoprecipitation; assay type: biochemical
T1 construct: gene HSP90AA1; N-terminal fragment of Hsp90 (NRL-N-Hsp90); with Cdc37

Hsp90α = target: T2, Hsp90α (Homo sapiens, UniProt P07900); assay: co-immunoprecipitation of Cdc37 with Hsp90α from cells treated with […] for […] h; assay type: cell-based
T2 construct: gene HSP90AA1; endogenous Hsp90 in MDA-MB-231 or MIA PaCa-2 cells; with Cdc37

Structure (SMILES) | IC50 [1] | co-immunoprecipitation of Cdc37 with Hsp90α from cells treated with 10 μM for 24 (Hsp90α)
CC[C@@H]1[C@@H](C)O[C@@](O)([C@@H](C)[C@H](O)[C@H](C)[C@H]2OC(=O)/C=C/C=C/[C@H](C)[C@@H]([C@@H](C)[C@@H](O)[C@H](C)[C@@]3(O)C[C@@H](O[C@H]4C[C@H](O)[C@H](O)[C@H](C)O4)[C@H](CC)[C@@H](C)O3)OC(=O)/C=C/C=C/[C@@H]2C)C[C@H]1O[C@H]1C[C@H](O)[C@H](O)[C@H](C)O1 [elaiophylin] | 11 ± 4 µM | –
C/C1=C\[C@H](C)C[C@H](C)[C@H](Cc2cnco2)OC(=O)/C(C)=C/[C@H](C)C[C@H](C)[C@H](Cc2cnco2)OC1=O [conglobatin A] | – | Both elaiophylin and conglobatin A treatment reduced the amount of co-precipitated Cdc37
